In ChEMBL document CHEMBL1201861, “Genomics of Drug Sensitity in Cancer screening data, Wellcome Trust Sanger Institute”:

Assays:
[1] = tested on: COLO-741; assay: cells; type: functional, cell-based; details: Homo sapiens
Description: SANGER: Inhibition of human COLO-741 cell growth in a cell viability assay.

[2] = tested on: COLO-792; assay: cells; type: functional, cell-based; details: Homo sapiens
Description: SANGER: Inhibition of human COLO-792 cell growth in a cell viability assay.

[3] = tested on: CP66-MEL; assay: cells; type: functional, cell-based; details: Homo sapiens;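 further: growth inhibition of CP66-MEL cells determined in a cell viability assay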
Description: SANGER: Inhibition of human CP66-MEL cell growth in a cell viability assay.

[4] = tested on: Ca-Ski; assay: cells; type: functional, cell-based; details: Homo sapiens;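 further: cell viability assay measuring inhibition of Ca-Ski cell growth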
Description: SANGER: Inhibition of human Ca-Ski cell growth in a cell viability assay.

[5] = tested on: Calu-3; assay: cells; type: functional, cell-based; details: Homo sapiens;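 further: growth inhibition of human Calu-3 cells, determined with a cell viability assay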
Description: SANGER: Inhibition of human Calu-3 cell growth in a cell viability assay.

[6] = tested on: DG-75; assay: cells; type: functional, cell-based, Homo sapiens; details: Homo sapiens, DG-75;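 further: growth inhibition of DG-75 cells, read out with a cell viability assay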
Description: SANGER: Inhibition of human DG-75 cell growth in a cell viability assay.

[7] = tested on: EFM-19; assay: cells; type: functional, cell-based; details: Homo sapiens;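 further: growth inhibition of human EFM-19 cells, measured in a cell viability assay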
Description: SANGER: Inhibition of human EFM-19 cell growth in a cell viability assay.

[8] = tested on: FaDu; assay: cells; type: functional, cell-based; details: Homo sapiens;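 further: cell viability readout of growth inhibition in FaDu cells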
Description: SANGER: Inhibition of human FADU cell growth in a cell viability assay.

[9] = tested on: GMS-10; assay: cells; type: functional, cell-based; details: Homo sapiens;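 further: growth inhibition of GMS-10 cells, read out as cell viability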
Description: SANGER: Inhibition of human GMS-10 cell growth in a cell viability assay.

[10] = tested on: HCC1954; assay: cells; type: functional, cell-based; details: Homo sapiens;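 further: growth inhibition of human HCC1954 cells, read out with a cell viability assay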
Description: SANGER: Inhibition of human HCC1954 cell growth in a cell viability assay.

[11] = tested on: HCC70; assay: cells; type: functional, cell-based; details: Homo sapiens;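 further: cell viability assay measuring how strongly the compound suppresses proliferation of HCC70 cells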
Description: SANGER: Inhibition of human HCC70 cell growth in a cell viability assay.

[12] = tested on: HOP-92; assay: cells; type: functional, cell-based; details: Homo sapiens;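 further: cell viability readout, with IC50 reflecting inhibition of HOP-92 cell growth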
Description: SANGER: Inhibition of human HOP-92 cell growth in a cell viability assay.

[13] = tested on: HT-29; assay: cells; type: functional, cell-based; details: Homo sapiens;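 further: growth inhibition of human HT-29 cells, read out by a cell viability assay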
Description: SANGER: Inhibition of human HT-29 cell growth in a cell viability assay.

[14] = tested on: HuO-3N1; assay: cells; type: functional, cell-based; details: Homo sapiens;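 further: cell viability readout used to measure how strongly compounds suppress proliferation of human HuO-3N1 cells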
Description: SANGER: Inhibition of human HuO-3N1 cell growth in a cell viability assay.

[15] = tested on: HuP-T3; assay: cells; type: functional, cell-based; details: Homo sapiens;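 further: HuP-T3 cell growth inhibition, read out with a cell viability assay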
Description: SANGER: Inhibition of human HuP-T3 cell growth in a cell viability assay.

[16] = tested on: J82; assay: cells; type: functional, cell-based; details: Homo sapiens;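 further: growth inhibition of J82 cells, read out with a cell viability assay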
Description: SANGER: Inhibition of human J82 cell growth in a cell viability assay.

[17] = tested on: KMS-12-PE; assay: cells; type: functional, cell-based, Homo sapiens; details: Homo sapiens, KMS-12-PE;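 further: growth inhibition of human KMS-12-PE cells, measured with a cell viability assay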
Description: SANGER: Inhibition of human KMS-12-PE cell growth in a cell viability assay.

[18] = tested on: KP-4; assay: cells; type: functional, cell-based; details: Homo sapiens;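 further: human KP-4 cells, with growth inhibition read out through a cell viability assay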
Description: SANGER: Inhibition of human KP-4 cell growth in a cell viability assay.

[19] = tested on: KYSE-180; assay: cells; type: functional, cell-based; details: Homo sapiens;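 further: growth inhibition of KYSE-180 cells, read out with a cell viability assay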
Description: SANGER: Inhibition of human KYSE-180 cell growth in a cell viability assay.

[20] = tested on: KYSE-510; assay: cells; type: functional, cell-based; details: Homo sapiens;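 further: cell viability readout used to measure how strongly growth of the cell line is suppressed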
Description: SANGER: Inhibition of human KYSE-510 cell growth in a cell viability assay.

[21] = tested on: LB647-SCLC; assay: cells; type: functional, cell-based, Homo sapiens; details: Homo sapiens, LB647-SCLC;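 further: cell growth inhibition, read out by a viability assay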
Description: SANGER: Inhibition of human LB647-SCLC cell growth in a cell viability assay.

[22] = tested on: LK-2; assay: cells; type: functional, cell-based; details: Homo sapiens;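 further: growth inhibition of LK-2 cells, read out with a viability assay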
Description: SANGER: Inhibition of human LK-2 cell growth in a cell viability assay.

[23] = tested on: LoVo; assay: cells; type: functional, cell-based; details: Homo sapiens;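 further: growth inhibition of human LoVo cells, read out with a cell viability assay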
Description: SANGER: Inhibition of human LoVo cell growth in a cell viability assay.

[24] = tested on: M14; assay: cells; type: functional, cell-based; details: Homo sapiens;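 further: growth inhibition of M14 cells, read out with a cell viability assay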
Description: SANGER: Inhibition of human M14 cell growth in a cell viability assay.

[25] = tested on: MDA-MB-134-VI; assay: cells; type: functional, cell-based, Homo sapiens; details: Homo sapiens, MDA-MB-134-VI
Description: SANGER: Inhibition of human MDA-MB-134-VI cell growth in a cell viability assay.

[26] = tested on: MDA-MB-415; assay: cells; type: functional, cell-based; details: Homo sapiens
[27] = tested on: MONO-MAC-6; assay: cells; type: functional, cell-based, Homo sapiens; details: Homo sapiens, MONO-MAC-6;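 further: cell viability assay measuring growth inhibition of human MONO-MAC-6 cells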
Description: SANGER: Inhibition of human MONO-MAC-6 cell growth in a cell viability assay.

[28] = tested on: NCI-H1703; assay: cells; type: functional, cell-based; details: Homo sapiens;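 further: growth inhibition of NCI-H1703 cells, read out via a cell viability assay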
Description: SANGER: Inhibition of human NCI-H1703 cell growth in a cell viability assay.

[29] = tested on: NCI-H1792; assay: cells; type: functional, cell-based; details: Homo sapiens;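 further: growth inhibition of human NCI-H1792 cells, read out as cell viability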
Description: SANGER: Inhibition of human NCI-H1792 cell growth in a cell viability assay.

[30] = tested on: NCI-H1963; assay: cells; type: functional, cell-based, Homo sapiens; details: Homo sapiens, NCI-H1963;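 further: cell growth inhibition of the human line, determined with a cell viability assay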
Description: SANGER: Inhibition of human NCI-H1963 cell growth in a cell viability assay.

[31] = tested on: NCI-H2009; assay: cells; type: functional, cell-based; details: Homo sapiens;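 further: cell viability assay measuring inhibition of NCI-H2009 cell growth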
Description: SANGER: Inhibition of human NCI-H2009 cell growth in a cell viability assay.

[32] = tested on: NCI-H2030; assay: cells; type: functional, cell-based; details: Homo sapiens;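 further: growth inhibition of human NCI-H2030 cells, read out by a cell viability assay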
Description: SANGER: Inhibition of human NCI-H2030 cell growth in a cell viability assay.

[33] = tested on: NCI-H2347; assay: cells; type: functional, cell-based; details: Homo sapiens;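 further: growth inhibition of the cell line, read out with a cell viability assay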
Description: SANGER: Inhibition of human NCI-H2347 cell growth in a cell viability assay.

[34] = tested on: NCI-H2405; assay: cells; type: functional, cell-based; details: Homo sapiens;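 further: growth inhibition of the human cell line, read out with a cell viability assay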
Description: SANGER: Inhibition of human NCI-H2405 cell growth in a cell viability assay.

[35] = tested on: NCI-H441; assay: cells; type: functional, cell-based; details: Homo sapiens;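 further: growth inhibition of NCI-H441 cells, read out with a cell viability assay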
Description: SANGER: Inhibition of human NCI-H441 cell growth in a cell viability assay.

[36] = tested on: OVCAR-3; assay: cells; type: functional, cell-based; details: Homo sapiens;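 further: growth inhibition of human OVCAR-3 cells, determined by a cell viability assay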
Description: SANGER: Inhibition of human OVCAR-3 cell growth in a cell viability assay.

[37] = tested on: RL; assay: cells; type: functional, cell-based, Homo sapiens; details: Homo sapiens, RL
Description: SANGER: Inhibition of human RL cell growth in a cell viability assay.

[38] = tested on: RPMI 8402; assay: SANGER: Inhibition of human RPMI-8402 cell growth in a cell viability assay.; type: functional, cell-based; details: Homo sapiens, RPMI 8402
[39] = tested on: SCC-25; assay: cells; type: functional, cell-based; details: Homo sapiens;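 further: growth inhibition of SCC-25 cells, measured with a cell viability assay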
Description: SANGER: Inhibition of human SCC-25 cell growth in a cell viability assay.

[40] = tested on: SCC-3; assay: cells; type: functional, cell-based, Homo sapiens; details: Homo sapiens, SCC-3;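 further: cell viability assay measuring inhibition of SCC-3 cell growth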
Description: SANGER: Inhibition of human SCC-3 cell growth in a cell viability assay.

[41] = tested on: SIMA; assay: cells; type: functional, cell-based, Homo sapiens; details: Homo sapiens, SIMA;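 further: growth inhibition of SIMA cells, measured with a cell viability readout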
Description: SANGER: Inhibition of human SIMA cell growth in a cell viability assay.

[42] = tested on: SK-HEP1; assay: cells; type: functional, cell-based, SK-HEP-1; details: Homo sapiens;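 further: cell viability readout used to quantify reduction in proliferation of human SK-HEP-1 cells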
Description: SANGER: Inhibition of human SK-HEP-1 cell growth in a cell viability assay.

[43] = tested on: SR; assay: cells; type: functional, cell-based, Homo sapiens; details: Homo sapiens, SR
Description: SANGER: Inhibition of human SR cell growth in a cell viability assay.

[44] = tested on: SAOS-2; assay: cells; type: functional, cell-based; details: Homo sapiens;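 further: growth inhibition of human Saos-2 cells determined by a cell viability assay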
Description: SANGER: Inhibition of human Saos-2 cell growth in a cell viability assay.

[45] = tested on: T98G; assay: cells; type: functional, cell-based; details: Homo sapiens;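 further: growth inhibition of T98G cells, read out by a cell viability assay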
Description: SANGER: Inhibition of human T98G cell growth in a cell viability assay.

[46] = tested on: TALL-1; assay: cells; type: functional, cell-based, Homo sapiens; details: Homo sapiens, TALL-1;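 further: growth inhibition of cultured human TALL-1 cells, read out by a cell viability assay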
Description: SANGER: Inhibition of human TALL-1 cell growth in a cell viability assay.

[47] = tested on: A 172; assay: cells; type: functional, cell-based; details: Homo sapiens;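 further: growth inhibition of A172 cells, measured with a cell viability readout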
Description: SANGER: Inhibition of human A172 cell growth in a cell viability assay.

[48] = tested on: A204; assay: cells; type: functional, cell-based; details: Homo sapiens;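 further: growth inhibition of human A204 cells, read out with a cell viability assay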
Description: SANGER: Inhibition of human A204 cell growth in a cell viability assay.

[49] = tested on: A2058; assay: cells; type: functional, cell-based; details: Homo sapiens;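 further: reduction of A2058 cell growth, read out with a viability assay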
Description: SANGER: Inhibition of human A2058 cell growth in a cell viability assay.

[50] = tested on: ABC-1; assay: cells; type: functional, cell-based; details: Homo sapiens;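 further: growth inhibition of human ABC-1 cells, read out by a cell viability assay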
Description: SANGER: Inhibition of human ABC-1 cell growth in a cell viability assay.

[51] = tested on: ACHN; assay: cells; type: functional, cell-based; details: Homo sapiens;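 further: cell viability read-out used to gauge how strongly growth of human ACHN cells is suppressed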
Description: SANGER: Inhibition of human ACHN cell growth in a cell viability assay.

[52] = tested on: BOKU; assay: cells; type: functional, cell-based; details: Homo sapiens;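 further: growth inhibition of the human BOKU cell line, read out by a cell viability assay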
Description: SANGER: Inhibition of human BOKU cell growth in a cell viability assay.

[53] = tested on: BXPC-3; assay: cells; type: functional, cell-based; details: Homo sapiens;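 further: growth inhibition of human BxPC-3 cells, read out by a cell viability assay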
Description: SANGER: Inhibition of human BxPC-3 cell growth in a cell viability assay.

[54] = tested on: CAKI-1; assay: cells; type: functional, cell-based; details: Homo sapiens;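 further: growth inhibition of CAKI-1 cells, measured by a cell viability assay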
Description: SANGER: Inhibition of human CAKI-1 cell growth in a cell viability assay.

[55] = tested on: CAL-51; assay: cells; type: functional, cell-based; details: Homo sapiens
Description: SANGER: Inhibition of human CAL-51 cell growth in a cell viability assay.

[56] = tested on: UMUC3; assay: cells; type: functional, cell-based; details: Homo sapiens
Description: SANGER: Inhibition of human UM-UC-3 cell growth in a cell viability assay.

[57] = tested on: YAPC; assay: cells; type: functional, cell-based; details: Homo sapiens
Description: SANGER: Inhibition of human YAPC cell growth in a cell viability assay.

[58] = tested on: CMK; assay: cells; type: functional, cell-based, Homo sapiens; details: Homo sapiens, CMK
Description: SANGER: Inhibition of human CMK cell growth in a cell viability assay.

[59] = tested on: COLO-679; assay: cells; type: functional, cell-based; details: Homo sapiens
Description: SANGER: Inhibition of human COLO-679 cell growth in a cell viability assay.

O=S(=O)(O)c1ccc2cc(/N=N/c3cc(S(=O)(=O)O)c4cccnc4c3O)ccc2c1
IC50 [1]: > 16 µM
IC50 [2]: > 16 µM
IC50 [3]: > 16 µM
IC50 [4]: > 16 µM
IC50 [5]: > 16 µM
IC50 [6]: > 16 µM
IC50 [7]: > 16 µM
IC50 [8]: > 16 µM
IC50 [9]: > 16 µM
IC50 [10]: > 16 µM
IC50 [11]: > 16 µM
IC50 [12]: > 16 µM
IC50 [13]: > 16 µM
IC50 [14]: > 16 µM
IC50 [15]: > 16 µM
IC50 [16]: > 16 µM
IC50 [17]: > 16 µM
IC50 [18]: > 16 µM
IC50 [19]: > 16 µM
IC50 [20]: > 16 µM
IC50 [21]: > 16 µM
IC50 [22]: > 16 µM
IC50 [23]: > 16 µM
IC50 [24]: > 16 µM
IC50 [25]: > 16 µM
IC50 [26]: > 16 µM
IC50 [27]: > 16 µM
IC50 [28]: > 16 µM
IC50 [29]: > 16 µM
IC50 [30]: > 16 µM
IC50 [31]: > 16 µM
IC50 [32]: > 16 µM
IC50 [33]: > 16 µM
IC50 [34]: > 16 µM
IC50 [35]: > 16 µM
IC50 [36]: > 16 µM
IC50 [37]: > 16 µM
IC50 [38]: > 16 µM
IC50 [39]: > 16 µM
IC50 [40]: > 16 µM
IC50 [41]: > 16 µM
IC50 [42]: > 16 µM
IC50 [43]: > 16 µM
IC50 [44]: > 16 µM
IC50 [45]: > 16 µM
IC50 [46]: > 16 µM
IC50 [47]: > 16 µM
IC50 [48]: > 16 µM
IC50 [49]: > 16 µM
IC50 [50]: > 16 µM
IC50 [51]: > 16 µM
IC50 [52]: > 16 µM
IC50 [53]: > 16 µM
IC50 [54]: > 16 µM
IC50 [55]: 9.36 µM
IC50 [56]: > 16 µM
IC50 [57]: > 16 µM
IC50 [58]: > 16 µM
IC50 [59]: > 16 µM

COC(=O)[C@H](CCSC)NC(=O)c1ccc(NC[C@@H](N)CS)cc1-c1ccccc1
IC50 [1]: > 1.02 µM
IC50 [2]: > 1.02 µM
IC50 [3]: > 1.02 µM
IC50 [4]: > 1.02 µM
IC50 [5]: > 1.02 µM
IC50 [6]: > 1.02 µM
IC50 [7]: > 1.02 µM
IC50 [8]: > 1.02 µM
IC50 [9]: > 1.02 µM
IC50 [10]: > 1.02 µM
IC50 [11]: > 1.02 µM
IC50 [12]: > 1.02 µM
IC50 [13]: > 1.02 µM
IC50 [14]: > 1.02 µM
IC50 [15]: > 1.02 µM
IC50 [16]: > 1.02 µM
IC50 [17]: > 1.02 µM
IC50 [18]: > 1.02 µM
IC50 [19]: > 1.02 µM
IC50 [20]: > 1.02 µM
IC50 [21]: > 1.02 µM
IC50 [22]: > 1.02 µM
IC50 [23]: > 1.02 µM
IC50 [24]: > 1.02 µM
IC50 [25]: > 1.02 µM
IC50 [26]: > 1.02 µM
IC50 [27]: > 1.02 µM
IC50 [28]: > 1.02 µM
IC50 [29]: > 1.02 µM
IC50 [30]: > 1.02 µM
IC50 [31]: > 1.02 µM
IC50 [32]: > 1.02 µM
IC50 [33]: > 1.02 µM
IC50 [34]: > 1.02 µM
IC50 [35]: > 1.02 µM
IC50 [36]: > 1.02 µM
IC50 [37]: > 1.02 µM
IC50 [38]: > 1.02 µM
IC50 [39]: > 1.02 µM
IC50 [40]: > 1.02 µM
IC50 [41]: > 1.02 µM
IC50 [42]: > 1.02 µM
IC50 [43]: > 1.02 µM
IC50 [44]: > 1.02 µM
IC50 [45]: > 1.02 µM
IC50 [46]: > 1.02 µM
IC50 [47]: > 1.02 µM
IC50 [48]: > 1.02 µM
IC50 [49]: > 1.02 µM
IC50 [50]: > 1.02 µM
IC50 [51]: > 1.02 µM
IC50 [52]: > 1.02 µM
IC50 [53]: > 1.02 µM
IC50 [54]: > 1.02 µM
IC50 [55]: > 1.02 µM
IC50 [56]: > 1.02 µM
IC50 [57]: > 1.02 µM
IC50 [58]: > 1.02 µM
IC50 [59]: > 1.02 µM
